Results on 9 compounds are retold here after patent US10344026B2, “Compositions and methods of targeting mutant K-ras” (NANTBIO, INC., priority 2017, dated 2019).

Holding throughout (type): cell-based
The target in one experiment is T1, K-Ras G12D (Homo sapiens, UniProt P01116, G12D).
T1 construct: expressed in transfected cells; host or cells: 293H cells
Briefly: G-LISA Ras activation, 293H cells transfected with G12D mutant. The following applies: compound 1 hour. Put shortly: (§1)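 293H cells were transfected with wild-type or mutant Ras plasmid (Lipofectamine 3000), then exposed next day to compounds at 3.125-25 μM for 1 hour. Wild-type transfectants received 100 ng/ml EGF for 2 minutes before ice-cold PBS wash, lysis on ice and G-LISA readout of active Ras.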

In experiment [1] the test system is Ishikawa (K-Ras wild type cell line). Briefly: Viability assay (CellTiterBlue, 72 hr) Ishikawa. The following applies: Homo sapiens, GI50, CellTiterBlue, Ishikawa K-Ras wild-type. Put shortly: (§2)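 1000 cells/well, 18 hr pre-incubation at 37 °C; compound added from DMSO stock, 0.5% DMSO final; 72 hr; CellTiterBlue 3 hr, fluorescence Ex550/Em590; GI50 normalized to DMSO = 100%, 100 uM tamoxifen = 0% viability.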
(Resazurin is reduced to fluorescent resorufin, in cell work by metabolically active cells.)

The test system of experiment [2] is U87-MG (K-Ras wild type cell line). As to the kind of experiment: Viability assay (CellTiterBlue, 72 hr) U87-MG. The following applies: Homo sapiens, U-87 MG, GI50, CellTiterBlue, U87-MG K-Ras wild-type. The method, boiled down:
as §2

In experiment [3] the test system is HCC827 (K-Ras wild type cell line). Briefly: Viability assay (CellTiterBlue, 72 hr) HCC827. The following applies: Homo sapiens, GI50, CellTiterBlue, HCC827 K-Ras wild-type. The method, boiled down: as §2
The next experiment concerns Panc1-G12D. Briefly: Viability assay (CellTiterBlue, 72 hr) Panc1. The following applies: Homo sapiens, PANC-1, GI50, CellTiterBlue, Panc1 K-Ras G12D, read-out: 72 hr Cell Viability Panc1 (G12D). The method, boiled down:
as §2

Another experiment relates to Panc10.05-G12D. As to the kind of experiment: Viability assay (CellTiterBlue, 72 hr) Panc10.05. The following applies: Homo sapiens, Panc1005, GI50, CellTiterBlue, Panc10.05 K-Ras G12D, read-out: 72 hr Cell Viability Panc10.05 (G12D). Put shortly:
as §2

The subject of another experiment is HCT116-G31D. As to the kind of experiment: Viability assay (CellTiterBlue, 72 hr) HCT116. The following applies: Homo sapiens, HCT-116, GI50, CellTiterBlue, HCT116 K-Ras G13D, read-out: 72 hr Cell Viability HCT116 (G13D). The method, boiled down:
as §2

For experiment [4], the system named is phospho-ERK in HCC827 (Wild-type). As to the kind of experiment: In-Cell Western phospho-ERK, HCC827. The following applies: Homo sapiens, 1 h; HCC827, one hour treatment; read-out: In-Cell Western HCC827 (Wild-type) Erk (P). Put shortly: (§3)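 Following an 18 hr settle at 37° C, seeded cells receive test compound for 1 hr before fixation and staining with phospho-Akt and phospho-ERK primary antibodies (overnight, 4° C) plus a goat anti-rabbit secondary. Plates are imaged and fluorescence quantitated to give EC50.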

Experiment [5] concerns phospho-Akt in HCC827 (Wild-type). Briefly: In-Cell Western phospho-Akt, HCC827. The following applies: Homo sapiens, 1 h; HCC827, one hour treatment; read-out: In-Cell Western HCC827 (Wild-type) Akt (P). How it is done: In-cell phosphorylation assays for Erk and Akt were performed on several of the compounds and exemplary results are shown in Table 3 below using HCC827 and A375 cell lines for wild type K-Ras and Panc1 and Panc10.05 cell lines for G12D K-Ras mutants. Results are expressed in μM and corresponding structures are shown in FIGS. 2A-2G and Examples 1-152, above.
Cells are seeded in complete medium into black sided, clear-bottom 384-well microplates at 3000 cells/[…]/well. Plates are returned to 37° C. CO2 incubator for 18 hr. Drug is made as 200× in DMSO and diluted into medium to 10×. To each well is added 4 ul 10× test article or controls, and plates are returned to the incubator. Final assay DMSO concentration is 0.5%. After one hour, cells are fixed in formaldehyde, rinsed & permeabilized with triton X-100, and blocked with BSA/Goat serum blocking solution. Primary phospho-Akt and phospho-ERK antibodies are added and plates are incubated overnight at 4° C. Plates are rinsed with Tween-20 wash buffer and secondary antibody (Goat anti-rabbit, Thermofisher) is added. After 2 hours, plates are rinsed in Tween-20 wash buffer, and then PBS. Plates are imaged on the Celigo (Nexcelom) and cellular fluorescence is quantitated. Full inhibition of phospho-Akt is achieved with 1 uM BEZ235 (Sellekchem), while full inhibition of phospho-ERK is achieved with 1 uM MEK Inhibitor II Calbiochem). EC50 values are calculated using Graphpad Prism.

Experiment [6] deals with phospho-ERK in Panc1 (G12D). Briefly: In-Cell Western phospho-ERK, Panc1. The following applies: Homo sapiens, PANC-1, 1 h; Panc1, one hour treatment; read-out: In-Cell Western Panc1 (G12D) Erk (P). Put shortly:
as §3

The subject of experiment [7] is phospho-Akt in Panc1 (G12D). As to the kind of experiment: In-Cell Western phospho-Akt, Panc1. The following applies: Homo sapiens, PANC-1, 1 h; Panc1, one hour treatment; read-out: In-Cell Western Panc1 (G12D) Akt (P). Put shortly:
as §3

For another experiment, the target named is T2, wild type K-Ras (Homo sapiens, UniProt P01116).
T2 construct: expressed in transfected cells; host or cells: 293H cells
As to the kind of experiment: G-LISA Ras activation, 293H cells transfected with Ras wild-type, EGF stimulated. The following applies: compound 1 hour, then 100 ng/ml EGF 2 minutes. The method, boiled down: as §1

In experiment [8] the test system is phospho-ERK in Panc10.05 (G12D). Briefly: In-Cell Western phospho-ERK, Panc10.05. The following applies: Homo sapiens, Panc1005, 1 h; Panc10.05, one hour treatment; read-out: In-Cell Western Panc10.05 (G12D) Erk (P). Put shortly: as §3
In experiment [9] the test system is phospho-Akt in Panc10.05 (G12D). Briefly: In-Cell Western phospho-Akt, Panc10.05. The following applies: Homo sapiens, Panc1005, 1 h; Panc10.05, one hour treatment; read-out: In-Cell Western Panc10.05 (G12D) Akt (P). Put shortly:
as §3

T1 sequence (P01116 whole entry G12D): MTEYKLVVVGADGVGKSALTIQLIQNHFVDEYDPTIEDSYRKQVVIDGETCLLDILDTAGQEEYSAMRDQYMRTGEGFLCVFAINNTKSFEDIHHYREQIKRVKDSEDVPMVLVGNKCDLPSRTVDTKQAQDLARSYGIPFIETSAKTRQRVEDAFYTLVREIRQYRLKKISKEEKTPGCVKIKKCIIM
T2 sequence (P01116 whole entry): as the sequence (P01116 whole entry G12D) above, with D12G counted along it

`CCn1cc(C(=O)Nc2nc(-c3ccc4c(c3)CCC(=O)N4)cs2)cn1` [Compound 34, 1-ethyl-N-(4-(2-oxo-1,2,3,4-tetrahydroquinolin-6-yl)thiazol-2-yl)-1H-pyrazole-4-carboxamide]: the IC50 against K-Ras G12D is 15.8 µM; in experiment [1], 9 µM; in [2], above 25 µM; in experiment [3], above 25 µM; in the experiment with Panc1-G12D, above 25 µM; with Panc10.05-G12D, 7 µM. The IC50 in the experiment with HCT116-G31D was above 25 µM. In addition, the EC50 in [4] is above 25 µM; in experiment [5], above 25 µM; in experiment [6] it was 15 µM; in experiment [7] it was above 25 µM.

In the case of `Cc1nn(C(C)C)cc1C(=O)Nc1nc(-c2ccc3c(c2)CCC(=O)N3)cs1` [Compound 36, 1-isopropyl-3-methyl-N-(4-(2-oxo-1,2,3,4-tetrahydroquinolin-6-yl)thiazol-2-yl)-1N-pyrazole-4-carboxamide], the IC50 was 18.3 µM at wild type K-Ras; 7 µM at K-Ras G12D; 7 µM in experiment [1]; above 25 µM in experiment [2]; above 25 µM in [3]; 14 µM with Panc1-G12D. In addition, the IC50 in the experiment with Panc10.05-G12D is 3 µM; in the experiment on HCT116-G31D it was above 25 µM. Moreover, the EC50 is 20 µM in experiment [4], above 25 µM in experiment [5], 2 µM in [6] and 15 µM in experiment [7].

With `CCn1nc(C)c(C(=O)Nc2nc(-c3ccc4c(c3)CCC(=O)N4)cs2)c1C` [Compound 41, 1-ethyl-3,5-dimethyl-N-(4-(2-oxo-1,2,3,4-tetrahydroquinolin-6-yl)thiazol-2-yl)-1H-pyrazole-4-carboxamide], the IC50 at wild type K-Ras was 7.5 µM; on K-Ras G12D it was 4.3 µM; in experiment [1] it was 18 µM; in experiment [2], 7 µM; in experiment [3] it was 6 µM; in the experiment on Panc1-G12D it was 12 µM. In addition, the results for the IC50 with Panc10.05-G12D and in the experiment on HCT116-G31D were 19 µM and above 25 µM, respectively. Moreover, the EC50 in experiment [4] was 22 µM; in experiment [5], above 25 µM; in [6], 2 µM; in [7] it was 3 µM.

`Cn1ncc(C(=O)Nc2nc(-c3ccc4c(c3)CCC(=O)N4)cs2)c1C1CC1` [Compound 35, 5-cyclopropyl-1-methyl-N-(4-(2-oxo-1,2,3,4-tetrahydroquinolin-6-yl)thiazol-2-yl)-1H-pyrazole-4-carboxamide]: the IC50 was above 25 µM on K-Ras G12D; 19 µM in experiment [1]; 6 µM in experiment [2]; 7 µM in experiment [3]; above 25 µM in the experiment with Panc1-G12D; above 25 µM with Panc10.05-G12D. Moreover, the IC50 in the experiment with HCT116-G31D is above 25 µM. Moreover, the EC50 in experiment [4] was 11 µM; in experiment [5] it was above 25 µM; in [6] it was above 25 µM; in experiment [7], above 25 µM.

For `Cc1nc(C2CCOC2O)sc1C(=O)Nc1nc(-c2ccc3c(c2)CCC(=O)N3Cc2cccnc2)cs1` (stereo not drawn) [Compound 71, 2-(2-hydroxytetrahydrofuran-3-yl)-4-methyl-N-(4-(2-oxo-1-(pyridin-3-ylmethyl)-1,2,3,4-tetrahydroquinolin-6-yl)thiazol-2-yl)thiazole-5-carboxamide], the IC50 worked out at 6 µM in experiment [1]; 7 µM in [3]; 22 µM with Panc1-G12D; 6 µM in the experiment on Panc10.05-G12D; 9 µM in the experiment on HCT116-G31D. The EC50 is 16 µM in experiment [4]; 27 µM in experiment [5]; 25 µM in [6]; 18 µM in [7]; 16 µM in experiment [8]; above 25 µM in [9].

On to `Cn1cc(C(=O)Nc2nc(-c3ccc4c(c3)CCC(=O)N4)cs2)c(C(F)(F)F)n1` [Compound 30, 1-methyl-N-(4-(2-oxo-1,2,3,4-tetrahydroquinolin-6-yl)thiazol-2-yl)-3-(trifluoromethyl)-1H-pyrazole-4-carboxamide], for which the IC50 against K-Ras G12D was above 25 µM; in experiment [1] it was 18 µM; in experiment [2] it was above 25 µM; in experiment [3], above 25 µM; in the experiment on Panc1-G12D, above 25 µM; with Panc10.05-G12D, 23 µM. For the same compound, in the experiment on HCT116-G31D, the IC50 is above 25 µM. The EC50 in experiment [4] is 16 µM; in [5], above 25 µM; in [6], 8 µM; in [7], above 25 µM.

Turning to `Cc1nn(C)c(C)c1C(=O)Nc1nc(-c2ccc3c(c2)CCC(=O)N3)cs1` [Compound 40, 1,3,5-trimethyl-N-(4-(2-oxo-1,2,3,4-tetrahydroquinolin-6-yl)thiazol-2-yl)-1H-pyrazole-4-carboxamide], the IC50 against wild type K-Ras was 23.3 µM; on K-Ras G12D it was 6.1 µM; in experiment [1] it was above 25 µM; in [2] it was 9 µM; in [3] it was 7 µM; in the experiment on Panc1-G12D it was 24 µM. In addition, the IC50 with Panc10.05-G12D and in the experiment on HCT116-G31D was above 25 µM throughout. Besides, the EC50 in [4] was above 25 µM; in experiment [5], 25 µM; in [6], 8 µM; in [7] it was 7 µM.

With `CCc1nn(C)cc1C(=O)Nc1nc(-c2ccc3c(c2)CCC(=O)N3)cs1` [Compound 37, 3-ethyl-1-methyl-N-(4-(2-oxo-1,2,3,4-tetrahydroquinolin-6-yl)thiazol-2-yl)-1H-pyrazole-4-carboxamide], the IC50 against K-Ras G12D was above 25 µM; in experiment [1], above 25 µM; in experiment [2], 6 µM; in experiment [3], 7 µM; with Panc1-G12D, above 25 µM; in the experiment with Panc10.05-G12D, above 25 µM. For the same compound, the IC50 with HCT116-G31D is above 25 µM. The EC50 was above 25 µM in experiment [4], above 25 µM in experiment [5], above 25 µM in experiment [6] and 26 µM in experiment [7].

`CCn1ncc(C(=O)Nc2nc(-c3ccc4c(c3)CCC(=O)N4)cs2)c1C1CC1` [Compound 33, 5-cyclopropyl-1-ethyl-N-(4-(2-oxo-1,2,3,4-tetrahydroquinolin-6-yl)thiazol-2-yl)-1H-pyrazole-4-carboxamide]: the IC50 (on K-Ras G12D; in experiment [1]; in experiment [2]; in experiment [3]; with Panc1-G12D; in the experiment with Panc10.05-G12D) was above 25 µM throughout. In addition, in the experiment on HCT116-G31D, the IC50 was above 25 µM. The EC50 in [4], in [5], in experiment [6] and in [7] was above 25 µM each time.
